Read-outs that look alike come from different tables or passages of the source.
Experiments:
[1] = ref FDA Liver Toxicity Knowledge Base (LTKB); cited from earlier work
human ABCB4 [2] = biological target: T1, human ABCB4 (Homo sapiens, UniProt P21439); assay: Inhibition of ABCB4-mediated digoxin transport, bidirectional assay in Abcb1KO-MDCKII-ABCB4 cells; type: cell-based
T1 construct: expressed in transfected cells; host or cells: Abcb1KO-MDCKII (canine kidney, Abcb1 knockout), lentiviral transduction, single clone

ABCB4 [3] = conditions: read-out: In Vitro Literature Data (IC50), cited from earlier work
human ABCB4 [4] = biological target: T1, human ABCB4; assay: Bidirectional transport (efflux ratio) in Abcb1KO-MDCKII-ABCB4 cells, substrate test; type: in vitro ADME; conditions: for ABCB4 substrate status, in words: bidirectional transport, ER cut-off 2
canine Abcb1 [5] = biological target: T2, canine Abcb1 (Canis lupus familiaris, UniProt C0KKU9); assay: in vitro; conditions: dog, MDCK, pH 7.4
ABCB4 [6] = conditions: 10 µM, LLC-PK1-ABCB4 cells; cited from earlier work
ABCB4 [7] = conditions: cited from earlier work; for IC50: read-out: In Vitro Literature Data (IC50)
canine Abcb1 [8] = biological target: T2, canine Abcb1; parameters: To confirm the impact of endogenous canine Abcb1 on the efflux ratio (ER); host or cells: MDCKII parental (wildtype) cells; method as in PMID 31266750; conditions: previous study; cited from earlier work
[9] = digoxin 1 µM probe, ABCB4 cell monolayers, samples at 3 h, read-out: IC50 (µM), Based on Digoxin ER

T1 sequence (P21439 1-1279 isoform P21439-2): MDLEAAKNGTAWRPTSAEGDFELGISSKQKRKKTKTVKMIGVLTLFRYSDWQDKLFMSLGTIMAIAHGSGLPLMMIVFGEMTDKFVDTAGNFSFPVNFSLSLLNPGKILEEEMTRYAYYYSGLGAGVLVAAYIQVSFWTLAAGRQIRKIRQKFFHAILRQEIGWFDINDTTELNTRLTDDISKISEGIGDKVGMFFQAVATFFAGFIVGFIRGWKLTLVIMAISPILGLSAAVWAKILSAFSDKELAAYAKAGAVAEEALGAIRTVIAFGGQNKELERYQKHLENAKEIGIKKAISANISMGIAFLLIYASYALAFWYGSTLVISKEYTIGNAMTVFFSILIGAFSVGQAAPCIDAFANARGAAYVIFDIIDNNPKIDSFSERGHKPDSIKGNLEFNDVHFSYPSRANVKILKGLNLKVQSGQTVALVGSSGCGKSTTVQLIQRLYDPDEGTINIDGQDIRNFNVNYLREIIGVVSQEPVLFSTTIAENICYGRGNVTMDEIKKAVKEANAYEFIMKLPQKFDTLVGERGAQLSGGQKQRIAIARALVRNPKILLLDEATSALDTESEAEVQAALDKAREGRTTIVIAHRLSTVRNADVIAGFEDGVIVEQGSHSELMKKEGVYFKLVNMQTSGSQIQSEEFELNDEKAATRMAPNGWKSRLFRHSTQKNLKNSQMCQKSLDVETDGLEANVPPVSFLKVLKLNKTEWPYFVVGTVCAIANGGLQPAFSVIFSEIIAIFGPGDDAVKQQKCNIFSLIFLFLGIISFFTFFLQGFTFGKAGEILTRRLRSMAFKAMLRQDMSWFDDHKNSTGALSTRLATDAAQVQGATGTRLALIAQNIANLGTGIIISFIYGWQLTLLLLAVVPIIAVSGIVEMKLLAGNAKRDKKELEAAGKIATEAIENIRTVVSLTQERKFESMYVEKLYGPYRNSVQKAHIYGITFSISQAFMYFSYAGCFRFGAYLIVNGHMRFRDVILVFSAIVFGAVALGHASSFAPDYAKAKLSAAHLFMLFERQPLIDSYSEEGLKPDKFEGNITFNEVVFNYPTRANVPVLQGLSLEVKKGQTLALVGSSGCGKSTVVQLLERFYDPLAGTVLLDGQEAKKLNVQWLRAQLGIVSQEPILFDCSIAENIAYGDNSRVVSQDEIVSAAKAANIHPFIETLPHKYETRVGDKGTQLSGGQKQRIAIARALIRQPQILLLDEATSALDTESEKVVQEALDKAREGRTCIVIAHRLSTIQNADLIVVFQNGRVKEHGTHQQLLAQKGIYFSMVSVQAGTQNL
T2 sequence (C0KKU9 1-1281): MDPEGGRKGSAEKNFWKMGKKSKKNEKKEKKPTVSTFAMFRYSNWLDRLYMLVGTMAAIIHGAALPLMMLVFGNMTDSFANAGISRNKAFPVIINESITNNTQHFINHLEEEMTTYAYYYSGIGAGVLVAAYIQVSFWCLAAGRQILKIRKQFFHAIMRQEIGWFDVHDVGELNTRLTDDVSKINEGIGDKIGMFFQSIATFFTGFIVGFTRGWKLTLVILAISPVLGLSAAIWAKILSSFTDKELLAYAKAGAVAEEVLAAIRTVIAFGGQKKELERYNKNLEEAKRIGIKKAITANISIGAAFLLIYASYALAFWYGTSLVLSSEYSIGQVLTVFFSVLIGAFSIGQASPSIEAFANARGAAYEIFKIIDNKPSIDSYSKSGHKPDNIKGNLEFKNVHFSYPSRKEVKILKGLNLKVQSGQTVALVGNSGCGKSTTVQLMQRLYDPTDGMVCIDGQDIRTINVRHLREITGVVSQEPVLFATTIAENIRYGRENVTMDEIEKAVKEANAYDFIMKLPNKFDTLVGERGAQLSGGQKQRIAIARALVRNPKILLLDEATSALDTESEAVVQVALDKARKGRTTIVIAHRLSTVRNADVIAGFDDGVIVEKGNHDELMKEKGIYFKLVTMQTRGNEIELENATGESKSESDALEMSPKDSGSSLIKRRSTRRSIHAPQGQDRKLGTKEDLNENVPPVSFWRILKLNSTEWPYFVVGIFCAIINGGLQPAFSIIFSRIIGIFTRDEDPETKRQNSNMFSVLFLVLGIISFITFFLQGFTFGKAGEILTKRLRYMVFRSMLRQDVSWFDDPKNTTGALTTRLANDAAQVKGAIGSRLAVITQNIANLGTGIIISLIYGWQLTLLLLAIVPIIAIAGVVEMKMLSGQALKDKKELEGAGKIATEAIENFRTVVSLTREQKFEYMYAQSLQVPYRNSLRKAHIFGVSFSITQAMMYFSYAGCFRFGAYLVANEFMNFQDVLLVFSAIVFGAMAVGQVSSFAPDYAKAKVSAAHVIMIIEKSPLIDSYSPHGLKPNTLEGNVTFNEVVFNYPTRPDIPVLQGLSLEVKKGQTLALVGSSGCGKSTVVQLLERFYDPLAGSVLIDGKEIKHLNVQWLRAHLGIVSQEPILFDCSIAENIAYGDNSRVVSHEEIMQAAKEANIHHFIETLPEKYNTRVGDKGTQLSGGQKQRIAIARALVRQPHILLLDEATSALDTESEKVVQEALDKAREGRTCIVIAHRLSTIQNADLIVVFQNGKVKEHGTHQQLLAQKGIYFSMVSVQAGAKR

Compound	DILI Concern [1]	Effect on ABCB4-mediated digoxin transport, in words (human ABCB4 [2]; digoxin 1 µM probe)	IC50 (human ABCB4 [2]; [9])	further results
CC(=O)Oc1ccccc1C(=O)O [acetylsalicylic acid]	No DILI concern	no effect	> 100 µM	IC50 (ABCB4 [3]; human primary hepatocyte assay): > 300 µM
CC[C@H](Nc1ncnc2[nH]cnc12)c1nc2cccc(F)c2c(=O)n1-c1ccccc1 [idelalisib]		did not inhibit ABCB4	> 5 µM	
COc1ccc([C@@H]2Sc3ccccc3N(CCN(C)C)C(=O)[C@@H]2OC(C)=O)cc1 [diltiazem]			48.6 µM	
Nc1cc(N2CCCCC2)nc(N)[n+]1[O-] [minoxidil]		no effect	> 20 µM	IC50 (ABCB4 [3]; human primary hepatocyte assay): > 300 µM
COc1cc2nc(N3CCN(C(=O)c4ccco4)CC3)nc(N)c2cc1OC [prazosin]			16.1 µM	ABCB4 substrate status, in words (human ABCB4 [4]): minor ABCB4-mediated directional transport
C[C@H]1O[C@@H](O[C@H]2[C@@H](O)C[C@H](O[C@H]3[C@@H](O)C[C@H](O[C@H]4CC[C@@]5(C)[C@H](CC[C@@H]6[C@@H]5C[C@@H](O)[C@]5(C)[C@@H](C7=CC(=O)OC7)CC[C@]65O)C4)O[C@@H]3C)O[C@@H]2C)C[C@H](O)[C@@H]1O [digoxin]				ABCB4 substrate status, in words (human ABCB4 [4]): shared substrate for ABCB1 and ABCB4; efflux ratio at 1 µM (canine Abcb1 [5]): 4.74 ± 0.15
C=C[C@H]1C[N@@]2CC[C@H]1C[C@@H]2[C@@H](O)c1ccnc2ccc(OC)cc12 [quinidine]			1.09 µM	efflux ratio at 1 µM (human ABCB4 [4]; human, pH 7.4, 1 µM, ABCB4 cells, read-out: Efflux ratio (ER)): < 2
CCC(C)n1ncn(-c2ccc(N3CCN(c4ccc(OCC5COC(Cn6cncn6)(c6ccc(Cl)cc6Cl)O5)cc4)CC3)cc2)c1=O (stereo not drawn) [itraconazole]	Most DILI concern		0.17 µM	Effect on ABCB4-mediated transport of gefitinib (human ABCB4 [4]; itraconazole 2 µM, gefitinib 0.5 µM): inhibited; In Vitro Literature Data, % inhibition at 10 µM (ABCB4 [6]): 30%; In Vitro Literature Data, % inhibition at 1 µM (ABCB4 [7]; 1 µM): 50%; IC50 (ABCB4 [7]): 22.5 µM; IC50 (ABCB4 [3]; primary hepatocyte assay, labeled PC): 2.1 µM
CC[C@H]1OC(=O)[C@H](C)[C@@H](O[C@H]2C[C@@](C)(OC)[C@@H](O)[C@H](C)O2)[C@H](C)[C@@H](O[C@@H]2O[C@H](C)C[C@H](N(C)C)[C@H]2O)[C@](C)(OC)C[C@@H](C)C(=O)[C@H](C)[C@@H](O)[C@]1(C)O [clarithromycin]	Most DILI concern		> 80 µM	
CNC(=O)c1cc(Oc2ccc(NC(=O)Nc3ccc(Cl)c(C(F)(F)F)c3)cc2)ccn1 [sorafenib]	Most DILI concern		4.42 µM	
C#Cc1cccc(Nc2ncnc3cc(OCCOC)c(OCCOC)cc23)c1 [erlotinib]	Most DILI concern		> 5 µM	
CC(C)CN(C[C@@H](O)[C@H](Cc1ccccc1)NC(=O)O[C@H]1CO[C@H]2OCC[C@H]21)S(=O)(=O)c1ccc(N)cc1 [darunavir]		ABCB4 inhibitors	> 10 µM	inhibition at 10 µM (human ABCB4 [2]; read-out: % inhibition of ABCB4-mediated digoxin transport at 10 µM, 10 µM test drug, digoxin 1 µM): 60%
CC(C)OC(=O)C(C)(C)Oc1ccc(C(=O)c2ccc(Cl)cc2)cc1 [fenofibrate]		no interaction	> 20 µM	
CC(=O)N1CCN(c2ccc(OCC3COC(Cn4ccnc4)(c4ccc(Cl)cc4Cl)O3)cc2)CC1 (stereo not drawn) [ketoconazole]	Most DILI concern			IC50 (ABCB4 [7]): 4.6 µM; IC50 (human ABCB4 [2]): 0.56 µM
CCOC(=O)C1=C(COCCN)NC(C)=C(C(=O)OC)C1c1ccccc1Cl (stereo not drawn) [amlodipine]		weak interaction	17.9 µM	
maraviroc				Affinity for endogenous canine Abcb1 in MDCKII cell lines, in words (canine Abcb1 [8]): strong affinity
CCOC(=O)C1=C(C)NC(C)=C(C(=O)OC)C1c1cccc(Cl)c1Cl (stereo not drawn) [felodipine]		no interaction	> 30 µM	
